Data from patent US20120220482A1, “COMPOSITIONS AND METHODS FOR SCREENING PEPTOID LIBRARIES” (The Board of Regents of the University of Texas System, priority 2011, published 2012).
Square brackets hold non-standard residues; d marks the D form. Peptide text beside a SMILES is read from it. * marks the point of attachment. N(4-Sulfamoylphenethyl)Gly = NS(=O)(=O)c1ccc(CCNCC(=O)O)cc1; Gly(N-piperonyl) = O=C(O)CNCc1ccc2c(c1)OCO2; hSer(lactone) = O=C1OCC[C@@H]1N*; NFurfurylGly = O=C(O)CNCc1ccco1; NAllylGly = C=CCNCC(=O)O

Target: M2 monoclonal anti-flag antibody
Assay: Microarray binding of spotted hits titrated with anti-FLAG antibody
Parameters: species or system mouse
Details: apparent KD from microarray binding curves with decreasing anti-FLAG antibody concentrations; NA = spot not bound by anti-FLAG antibody
Protocol: (§1) A total of 16 copies of each array of 100 compounds (the hits and various controls) were spotted onto each microscope slide. Each array, isolated by applying a Whatman Fast Frame to the slide, was then incubated for 2 hr with either anti-Myc antibody or various concentrations of anti-FLAG antibody. After washing, the amount of antibody captured at each spot was quantified by subsequent hybridization with fluorescently labeled secondary antibody, another wash, drying, and scanning. […] No binding of the anti-FLAG antibody to the Myc peptide was observed, nor was binding of the anti-Myc antibody to any of the hits or the FLAG peptide.
Microarray Spotting, Hybridization, and Data Analysis. Contents of the 384-well plates were printed onto maleimide-coated glass slides with a NanoPrint LM 360 (TeleChem International Inc., Sunnyvale, Calif.) with MP946 Micro Spotting Pins. A 10% ethanol (EM-AX007309; Midwest Grain Products) and water mixture was used to wash the pins before printing and after spotting of each compound. Multiple wash/sonicate/dry cycles were used between each sample pick-up and print cycle. Spots were printed on the slide to fit within the wells of a 16-well Whatman Fast Frame (Whatman no. 10486003), which allows 16 isolated hybridization events on a single slide. Slides were left in 50% humidity for 12 hr […]. After printing, the humidifier was turned off and the slides were left for at least 12 hr before free maleimide groups were blocked with 2% β-mercaptoethanol in DMF for 1 hr by placing the slides in glass slide holders inside of glass containers on a shaker in the chemical hood. Slides were washed sequentially with DMF for 30 min, tetrahydrofuran for 30 min, DMF for 30 min, acetonitrile thrice for 20 min, isopropanol thrice for 20 min, 13 TBST once for 20 min, then 0.13 TBST once for 20 min. Washed slides were spun dry for 5 min at 2000 rpm.
Dry slides were placed inside the Whatman Fast Frame following the provided instructions, and each of the 16 wells per slide was blocked with 100 μl of StartingBlock (Fisher) for 1 hr at RT with a multichannel pipetteman. Wells were drained and washed once with […] TBST. TBST was drained one well at a time before adding 100 μl of appropriate concentrations of protein(s) diluted in 1:1 TBST:StartingBlock. The FastFrame was placed on wet paper towels inside of a glass cake pan, which was sealed with Glad Press'n Seal and placed on an orbital shaker for 2-4 hr at RT. Each well was washed with TBST six times before adding 4 μg/ml Alexa647 goat anti-mouse IgG secondary antibodies diluted in 1:1 TBST:StartingBlock for 1 hr at RT. Slides were washed five times for 3 min with 13 TBST, then once with 0.13 TBST, spun dry at 2000 rpm, then scanned using a GenePix Autoloader 4200AL Scanner (Molecular Devices, Sunnyvale Calif.). Slides were scanned with a power of 1003 and photomultiplier tube setting of 5003-6003. Gal files were created and used to determine fluorescence intensity of each of the spots with GenePixPro6.0. Gal files were aligned manually, then automatic spotfinding followed by manual correction of spots performed for each of the scanned slides. GPR files were created and median fluorescence-background fluorescence values for each of the spots were cut and pasted in Excel and arranged (using simple macros) to simplify transferring results to GraphPad Prism 5.0 software for binding curve analyses.

`C=CCN(CC(=O)N(CC(=O)N[C@H]1CCOC1=O)Cc1ccco1)C(=O)[C@@H](CC(=O)O)NC(=O)CNC(=O)CN(Cc1ccc2c(c1)OCO2)C(=O)[C@@H](Cc1ccc(O)cc1)NC(=O)[C@H](N)CCCCN` [Spot E4] (H-[dK][dY][Gly(N-piperonyl)]G[dD][NAllylGly][NFurfurylGly]-{hSer(lactone)}) and `NCCCC[C@@H](N)C(=O)N[C@H](Cc1ccc(O)cc1)C(=O)N[C@H](Cc1ccc(O)cc1)C(=O)N[C@H](CC(N)=O)C(=O)N[C@H](CC(=O)O)C(=O)N(CC(=O)N(CC(=O)N[C@H]1CCOC1=O)Cc1ccco1)Cc1ccc2c(c1)OCO2` [Spot D5] (H-[dK][dY][dY][dN][dD][Gly(N-piperonyl)][NFurfurylGly]-{hSer(lactone)}) are within 1.5-fold of each other in Kd: 8 nM for the first, 7 nM for the second.

`N=C(N)NCCC[C@@H](NC(=O)[C@@H](Cc1ccc(O)cc1)NC(=O)[C@@H](CCCCN)NC(=O)[C@H](N)CCC(=O)O)C(=O)N[C@H](Cc1ccc(O)cc1)C(=O)N[C@H](Cc1c[nH]c2ccccc12)C(=O)N(CC(=O)N[C@H]1CCOC1=O)Cc1ccco1` [Spot B4] (H-[dE][dK][dY][dR][dY][dW][NFurfurylGly]-{hSer(lactone)}; C-terminus assumed) and `NCCCC[C@@H](N)C(=O)N[C@H](Cc1ccc(O)cc1)C(=O)N[C@H](CCC(=O)O)C(=O)N[C@H](Cc1ccc(O)cc1)C(=O)N[C@H](CCC(=O)O)C(=O)N[C@H](Cc1ccc(O)cc1)C(=O)N(CC(=O)N[C@H]1CCOC1=O)Cc1ccco1` [Spot H1] (H-[dK][dY][dE][dY][dE][dY][NFurfurylGly]-{hSer(lactone)}; C-terminus assumed) are within 1.5-fold of each other in Kd: 7 nM for the first, 6 nM for the second.

Going from `NCCCC[C@@H](N)C(=O)N[C@H](Cc1ccc(O)cc1)C(=O)N[C@H](CC(=O)O)C(=O)N[C@H](Cc1c[nH]c2ccccc12)C(=O)N[C@H](CCC(=O)O)C(=O)NCC(=O)N(CC(=O)N[C@H]1CCOC1=O)Cc1ccco1` [Spot H6] (H-[dK][dY][dD][dW][dE]G[NFurfurylGly]-{hSer(lactone)}; C-terminus assumed) to `CC(C)C[C@@H](N)C(=O)N[C@H](CC(=O)O)C(=O)N[C@H](CCCCN)C(=O)N[C@H](Cc1ccc(O)cc1)C(=O)N[C@H](CCC(=O)O)C(=O)N[C@H](Cc1c[nH]c2ccccc12)C(=O)N(CC(=O)N[C@H]1CCOC1=O)Cc1ccco1` [Spot B7] (H-[dL][dD][dK][dY][dE][dW][NFurfurylGly]-{hSer(lactone)}; C-terminus assumed), the Kd falls from 11 nM to 6 nM (1.8-fold).

`C=CCN(CC(=O)N[C@H](CCC(=O)O)C(=O)N[C@H](CC(C)C)C(=O)N(CC(=O)N[C@H]1CCOC1=O)Cc1ccco1)C(=O)[C@@H](CC(=O)O)NC(=O)[C@@H](Cc1ccc(O)cc1)NC(=O)[C@H](N)CCCCN` [Spot H9] (H-[dK][dY][dD][NAllylGly][dE][dL][NFurfurylGly]-{hSer(lactone)}; C-terminus assumed) and `C=CCNCC(=O)N[C@@H](C(=O)N[C@H](CCCCN)C(=O)N[C@H](Cc1ccc(O)cc1)C(=O)N[C@H](CC(=O)O)C(=O)N[C@H](CC(=O)O)C(=O)N(CC(=O)N[C@H]1CCOC1=O)Cc1ccco1)[C@H](C)O` [Spot B1] (H-[NAllylGly][dT][dK][dY][dD][dD][NFurfurylGly]-{hSer(lactone)}) are within 1.5-fold of each other in Kd: 4 nM for the first, 3 nM for the second.

First: NCCCC[C@@H](N)C(=O)N[C@H](Cc1ccc(O)cc1)C(=O)N[C@H](CC(=O)O)C(=O)N(CCc1ccc(S(N)(=O)=O)cc1)CC(=O)N(CCc1ccc(S(N)(=O)=O)cc1)CC(=O)N[C@H](CC(=O)O)C(=O)N(CC(=O)N[C@H]1CCOC1=O)Cc1ccco1 [Spot H2] (H-[dK][dY][dD][N(4-Sulfamoylphenethyl)Gly][N(4-Sulfamoylphenethyl)Gly][dD][NFurfurylGly]-{hSer(lactone)})
Second: NCCCC[C@@H](NC(=O)[C@H](N)CC(=O)O)C(=O)N[C@H](Cc1ccc(O)cc1)C(=O)N[C@H](Cc1ccccc1)C(=O)N[C@H](CO)C(=O)N(CCc1ccc(S(N)(=O)=O)cc1)CC(=O)N(CC(=O)N[C@H]1CCOC1=O)Cc1ccco1 [Spot B8] (H-[dD][dK][dY][dF][dS][N(4-Sulfamoylphenethyl)Gly][NFurfurylGly]-{hSer(lactone)})
The Kd of the first is 1.8-fold lower: 5 nM for the first, 9 nM for the second.

Going from `NCCCC[C@@H](NC(=O)[C@@H](CC(=O)O)NC(=O)[C@H](N)Cc1c[nH]c2ccccc12)C(=O)N[C@H](Cc1ccc(O)cc1)C(=O)N[C@H](Cc1c[nH]cn1)C(=O)N(CCc1ccc(S(N)(=O)=O)cc1)CC(=O)N(CC(=O)N[C@H]1CCOC1=O)Cc1ccco1` [Spot H8] (H-[dW][dD][dK][dY][dH][N(4-Sulfamoylphenethyl)Gly][NFurfurylGly]-{hSer(lactone)}) to `NCCCC[C@@H](N)C(=O)N[C@H](Cc1ccc(O)cc1)C(=O)N[C@H](Cc1ccc(O)cc1)C(=O)N[C@H](CCC(=O)O)C(=O)N[C@H](CC(N)=O)C(=O)N(CC(=O)N(CC(=O)N[C@H]1CCOC1=O)Cc1ccco1)Cc1ccc2c(c1)OCO2` [Spot H7] (H-[dK][dY][dY][dE][dN][Gly(N-piperonyl)][NFurfurylGly]-{hSer(lactone)}), the Kd rises from 2 nM to 9 nM (4.5-fold). The first binds more tightly here.

Going from `NCCCC[C@@H](NC(=O)[C@@H](CO)NC(=O)[C@H](N)CCC(=O)O)C(=O)N[C@H](Cc1ccc(O)cc1)C(=O)N[C@H](CC(=O)O)C(=O)N[C@H](Cc1ccc(O)cc1)C(=O)N(CC(=O)N[C@H]1CCOC1=O)Cc1ccco1` [Spot B9] (H-[dE][dS][dK][dY][dD][dY][NFurfurylGly]-{hSer(lactone)}; C-terminus assumed) to `C[C@@H](NC(=O)[C@@H](Cc1ccc(O)cc1)NC(=O)[C@@H](CCCCN)NC(=O)[C@@H](Cc1ccccc1)NC(=O)[C@H](N)CC(=O)O)C(=O)N[C@H](CCC(=O)O)C(=O)N(CC(=O)N[C@H]1CCOC1=O)Cc1ccco1` [Spot E8] (H-[dD][dF][dK][dY][dA][dE][NFurfurylGly]-{hSer(lactone)}; C-terminus assumed), the Kd rises from 2 nM to 9 nM (4.5-fold). The first binds more tightly here.

With `C[C@@H](NC(=O)[C@@H](Cc1ccc(O)cc1)NC(=O)[C@@H](CCCCN)NC(=O)[C@H](N)CC(N)=O)C(=O)N[C@H](CC(=O)O)C(=O)N[C@H](CC(=O)O)C(=O)N(CC(=O)N[C@H]1CCOC1=O)Cc1ccco1` [Spot A7] (H-[dN][dK][dY][dA][dD][dD][NFurfurylGly]-{hSer(lactone)}; C-terminus assumed) the Kd was 5 nM.

Same assay, conditions: microarray, fluorescently labeled secondary antibody

For “N-Asp-Tyr-Lys-Asp-Asp-Asp-Asp-Lys-C [FLAG peptide]”, the “binding of anti-FLAG antibody to spotted compound” value was “binds”.

Test system: anti-Myc antibody
Assay: Microarray hybridization of spotted compounds with anti-Myc antibody
Assay type: binding
Details: fluorescently labeled secondary antibody
Protocol: as §1
Microarray Spotting, Hybridization, and Data Analysis. […]
Dry slides were placed inside the Whatman Fast Frame following the provided instructions, and each of the 16 wells per slide was blocked with 100 μl of StartingBlock (Fisher) for 1 hr at RT with a multichannel pipetteman. […] Gal files were created and used to determine fluorescence intensity of each of the spots with GenePixPro6.0. […] GPR files were created and median fluorescence-background fluorescence values for each of the spots were cut and pasted in Excel and arranged (using simple macros) to simplify transferring results to GraphPad Prism 5.0 software for binding curve analyses.

With “N-Asp-Tyr-Lys-Asp-Asp-Asp-Asp-Lys-C [FLAG peptide]” the “binding of anti-Myc antibody to spotted compound” value was “No binding”.

Test system: anti-FLAG antibody
Assay: Competition experiment: anti-FLAG antibody pre-incubated with excess soluble peptide before hybridization to the array
Assay type: binding, mouse
Details: antibody first incubated with excess peptide
Protocol: To address if the higher affinity hits bind to anti-FLAG antibody in the antigen-binding site, the inventors carried out a competition experiment in which the anti-FLAG antibody was first incubated with an excess of FLAG peptide or, as a control, the Myc peptide, before hybridization to the array.

For “N-Asp-Tyr-Lys-Asp-Asp-Asp-Asp-Lys-C [FLAG peptide]”, the “effect of excess soluble peptide on binding of anti-FLAG antibody to the molecules on the microarray” value was “abrogated binding”.
